Test results published in BindingDB's records for doi:10.1016/j.bmcl.2007.01.064 (Vertex Pharmaceuticals, 2007).

Target: T1, Disintegrin and metalloproteinase domain-containing protein 17 [215-477,S266A,N452Q] (Homo sapiens, UniProt P78536, N452Q/S266A)
T1 construct: 215-477
Assay: TACE Inhibition Assay
Details: pH 7.5; 22 °C
Method: The compounds were tested for TACE inhibition using fluorescence resonance energy transfer (FRET) assay. TACE catalyzed cleavage of the substrate peptide liberates the fluoropore from the proximity of the adjacent quenching moiety, and an increase in fluorescence signal results.

T1 sequence (P78536 215-477 S266A/N452Q): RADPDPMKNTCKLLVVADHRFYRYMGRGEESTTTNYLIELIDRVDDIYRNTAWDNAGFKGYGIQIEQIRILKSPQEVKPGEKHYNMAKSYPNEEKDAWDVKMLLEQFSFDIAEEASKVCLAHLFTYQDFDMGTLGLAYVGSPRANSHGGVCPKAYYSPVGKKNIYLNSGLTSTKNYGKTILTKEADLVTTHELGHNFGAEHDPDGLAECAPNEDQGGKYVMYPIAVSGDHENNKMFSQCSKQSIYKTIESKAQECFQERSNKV

CC#CCOc1ccc(S(=O)(=O)N(C)CCS)cc1 [4-(but-2-yn-1-yloxy)-N-methyl-N-(2-sulfanylethyl)benzene-1-sulfonamide]
Ki: 0.056 µM
